# Source: US20110082130A1 (LIGAND PHARMACEUTICALS, INC., priority 2006, published 2011)
# Target: T1, chimeric human H3 receptor (Homo sapiens, UniProt Q9Y5N1)
# T1 construct: made in house; host or cells: Sf9 insect cells (baculovirus); P2 membrane preparation
# Assay: Chimeric human H3 receptor GTP binding assay (agonist-stimulated GTP-gamma35S binding, Example 7)
# Type: biochemical
# Source text: This Example illustrates a representative assay for evaluating agonist-stimulated GTP-gamma^35S binding (“GTP binding”) activity. […] This agonist-stimulated GTP binding activity can also be used to detect partial agonism mediated by antagonist compounds. A compound analyzed in this assay is referred to herein as a “test compound.”
# Four independent baculoviral stocks (one directing the expression of the chimeric human H3 receptor and three directing the expression of each of the three subunits of a heterotrimeric G-protein) are used to infect a culture of Sf9 cells as described above. P2 membranes are prepared as described above, and agonist-stimulated GTP binding on the P2 membranes is assessed using histamine (Sigma Chemical Co., St. Louis, Mo.) as agonist in order to ascertain that the receptor/G-protein-alpha-beta-gamma combination(s) yield a functional response as measured by GTP binding. P2 membranes are resuspended by Dounce homogenization (tight pestle) in GTP binding assay buffer (50 mM Tris pH 7.4, 120 mM NaCl, 5 mM MgCl2, 2 mM EGTA, 1 mg/ml BSA, 0.2 mg/ml bacitracin, 0.02 mg/ml aprotinin, 0.01 mg/ml saponin, 10 μM GDP) and added to assay tubes at a concentration of 35 μg protein/reaction tube. After adding increasing doses of histamine at concentrations ranging from 10^−12 M to 10^−5 M, reactions are initiated by the addition of […] GTP-gamma^35S (PERKIN ELMER; Boston, Mass.) with a final assay volume of 0.20 ml. In competition experiments, non-radiolabeled test compounds are added to separate reactions at concentrations ranging from 10^−10 M to 10^−6 M along with 1 μM histamine to yield a final volume of 0.20 ml.
# Neutral antagonists are antagonists that are substantially free of inherent agonist activity, and include those test compounds that reduce the histamine-stimulated GTP binding activity towards, but not below, baseline levels. In contrast, in the absence of added histamine, inverse agonists reduce the GTP binding activity of the receptor-containing membranes below baseline.
# After a 60-min incubation at room temperature, reactions are terminated by vacuum filtration over WHATMAN GF/C filters (pre-soaked in wash buffer, 0.1% BSA) followed by washing with ice-cold wash buffer (50 mM Tris pH 7.4, 120 mM NaCl). The amount of receptor-bound (and thereby membrane-bound) GTP-gamma^35S is determined by measuring the filter-bound radioactivity, preferably by liquid scintillation spectrometry of the washed filters. Non-specific binding is determined in parallel assays including 10 μM unlabeled GTP-gammaS and typically represents less than 5 percent of total binding. Data is expressed as percent above basal (baseline). The results of GTP binding experiments are analyzed using SIGMAPLOT software (SPSS Inc., Chicago, Ill.). IC50 values are calculated by non-linear regression analysis of dose-response curves using Kaleidograph (Synergy Software, Reading, Pa.).
# Alternatively the data is analyzed as follows. First, the average bound radioactivity from negative control wells (no agonist) is subtracted from the bound radioactivity detected for each of the other experimental wells. Second, average bound radioactivity is calculated for the positive control wells (agonist wells). Then, percent inhibition for each compound tested is calculated using the equation:
# Calculated IC50 values are converted to K1 values by the Cheng-Prusoff correction (Cheng and Prusoff (1973) Biochem. Pharmacol. 22(23):3099-3108). Accordingly, the following equation: Ki=IC50/(1+[L]/EC50) is used, where [L] is the histamine concentration in the GTP binding assay, and EC50 is the concentration of histamine producing a 50% response, as determined by a dose-response analysis using concentrations of histamine ranging from 10^−10 M to 10^−6M. […]
# [1] = Table II, "*" = Ki in assay of Example 7 less than 1 micromolar
# [2] = Table II "Ki", symbol *, assay of Example 7
# [3] = assay of Example 7, "*" in Ki of Table II
# T1 sequence (Q9Y5N1 with tags, fused parts or gaps): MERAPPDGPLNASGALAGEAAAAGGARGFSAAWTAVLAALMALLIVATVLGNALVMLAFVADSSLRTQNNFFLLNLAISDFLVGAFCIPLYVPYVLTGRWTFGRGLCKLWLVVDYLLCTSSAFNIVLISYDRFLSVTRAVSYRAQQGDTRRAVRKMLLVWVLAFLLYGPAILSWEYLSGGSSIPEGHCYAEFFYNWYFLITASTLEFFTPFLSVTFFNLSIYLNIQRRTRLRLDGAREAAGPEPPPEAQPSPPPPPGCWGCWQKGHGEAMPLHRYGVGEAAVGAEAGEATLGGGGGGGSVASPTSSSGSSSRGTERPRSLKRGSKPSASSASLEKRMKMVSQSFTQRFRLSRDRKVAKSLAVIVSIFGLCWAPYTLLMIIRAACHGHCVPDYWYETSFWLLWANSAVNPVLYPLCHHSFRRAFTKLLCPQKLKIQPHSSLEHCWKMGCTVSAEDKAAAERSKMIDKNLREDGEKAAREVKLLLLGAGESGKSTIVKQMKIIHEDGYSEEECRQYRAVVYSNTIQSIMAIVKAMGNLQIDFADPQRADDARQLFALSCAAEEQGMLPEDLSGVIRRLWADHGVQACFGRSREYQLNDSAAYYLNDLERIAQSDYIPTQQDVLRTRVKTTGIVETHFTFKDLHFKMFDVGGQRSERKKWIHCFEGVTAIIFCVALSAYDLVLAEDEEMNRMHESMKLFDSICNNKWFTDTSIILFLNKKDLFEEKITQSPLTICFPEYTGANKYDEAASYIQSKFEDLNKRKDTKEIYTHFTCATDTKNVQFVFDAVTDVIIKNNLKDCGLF
SMILES,Ki [1],also measured
"CCC(CC)N1CCN(C(=O)CN2CCc3cc(-c4cncnc4)ccc3C2)CC1 [Compound 145, 2-{2-[4-(1-ethylpropyl)piperazin-1-yl]-2-oxoethyl}-6-pyrimidin-5-yl-1,2,3,4-tetrahydroisoquinoline]",< 1000 nM,–
"O=C(CN1CCc2cc(-c3nccc4ccccc34)ccc2C1)N1CCN(C2CCC2)CC1 [Compound 637, 2′-[2-(4-cyclobutylpiperazin-1-yl)-2-oxoethyl]-1′,2′,3′,4′-tetrahydro-1,6′-biisoquinoline]",–,Ki [2]: < 1000 nM
"Cc1ccc(-c2nc3c(s2)CN(CC(=O)N2CCN(C4CCC4)CC2)CC3)cc1 [Compound 305, 5-[2-(4-cyclobutylpiperazin-1-yl)-2-oxoethyl]-2-(4-methylphenyl)-4,5,6,7-tetrahydro[1,3]thiazolo [5,4-c]pyridine]",–,Ki [3]: < 1000 nM
"CC(C)(C)c1ccc(-c2nc3c(s2)CN(CC(=O)N2CCN(C4CCC4)CC2)CC3)cc1 [Compound 314, 2-(4-tert-butylphenyl)-5-[2-(4-cyclobutylpiperazin-1-yl)-2-oxoethyl]-4,5,6,7-tetrahydro[1,3]thiazolo [5,4-c]pyridine]",–,Ki [3]: < 1000 nM
"CCC1CCC[C@H]2CN(C(=O)CN3CCc4cc(-n5cccn5)ccc4C3)CCN12 (stereo in doubt) [Compound 167, 6-ethyl-2-{[6-(1H-pyrazol-1-yl)-3,4-dihydroisoquinolin-2(1H)-yl]acetyl}octahydro-2H-pyrido[1,2-a]pyrazine]",< 1000 nM,–
"CS(=O)(=O)c1ccc(-c2ccc3c(c2)CCN(CC(=O)N2CCN(C4CCCC4)CC2)C3)cc1 [Compound 390, 2-[2-(4-cyclopentylpiperazin-1-yl)-2-oxoethyl]-6-[4-(methylsulfonyl)phenyl]-1,2,3,4-tetrahydroisoquinoline]",–,Ki [3]: < 1000 nM
"CC(C)N1CCN(C(=O)CN2CCc3[nH]c(=O)ccc3C2)CC1 [Compound 135, 6-[2-(4-isopropylpiperazin-1-yl)-2-oxoethyl]-5,6,7,8-tetrahydro-1,6-naphthyridin-2(1H)-one]",< 1000 nM,–
"Cc1ccnc(-c2ccc3c(c2)CCN(CC(=O)N2CCN(C4CCC4)CC2)C3)c1 [Compound 630, 2-[2-(4-cyclobutylpiperazin-1-yl)-2-oxoethyl]-6-(4-methylpyridin-2-yl)-1,2,3,4-tetrahydroisoquinoline]",–,Ki [2]: < 1000 nM
"O=C(CN1CCc2cc(-c3ccc(C(F)(F)F)nc3)ccc2C1)N1CCN(C2CCC2)CC1 [Compound 648, 2-[2-(4-cyclobutylpiperazin-1-yl)-2-oxoethyl]-6-[6-(trifluoromethyl)pyridin-3-yl]-1,2,3,4-tetrahydroisoquinoline]",–,Ki [2]: < 1000 nM
"O=C(CN1CCc2ccc(-c3cncnc3)cc2CC1)N1CCN(C2CCC2)CC1 [Compound 104, 3-[2-(4-cyclobutylpiperazin-1-yl)-2-oxoethyl]-7-pyrimidin-5-yl-2,3,4,5-tetrahydro-1H-3-benzazepine]",< 1000 nM,–
"CC(=O)c1ccc2c(c1)CCN(CC(=O)N1CCN3CCCCC3C1)C2 (centres unmarked) [Compound 154, 1-{2-[2-(octahydro-2H-pyrido[1,2-a]pyrazin-2-yl)-2-oxoethyl]-1,2,3,4-tetrahydroisoquinolin-6-yl}ethanone]",< 1000 nM,–
"CC1CN(c2ncc3c(n2)CCN(CC(=O)N2CCN(C4CCC4)CC2)C3)CC(C)O1 (centres unmarked) [Compound 187, 6-[2-(4-cyclobutylpiperazin-1-yl)-2-oxoethyl]-2-(2,6-dimethylmorpholin-4-yl)-5,6,7,8-tetrahydropyrido[4,3-d]pyrimidine]",< 1000 nM,–
"O=C(CN1CCc2nc(-c3cccc(OC(F)(F)F)c3)sc2C1)N1CCN(C2CCC2)CC1 [Compound 319, 5-[2-(4-cyclobutylpiperazin-1-yl)-2-oxoethyl]-2-[3-(trifluoromethoxy)phenyl]-4,5,6,7-tetrahydro[1,3]thiazolo [5,4-c]pyridine]",–,Ki [3]: < 1000 nM
"CC(C)Oc1ccc2c(c1)CCN(CC(=O)N1CCN(C3CCC3)CC1)C2 [Compound 197, 2-[2-(4-cyclobutylpiperazin-1-yl)-2-oxoethyl]-6-isopropoxy-1,2,3,4-tetrahydroisoquinoline]",< 1000 nM,–
"COc1cc(F)c(-c2ccc3c(c2)CCN(CC(=O)N2CCN(C4CCCC4)CC2)C3)cc1F [Compound 507, 2-[2-(4-cyclopentylpiperazin-1-yl)-2-oxoethyl]-6-(2,5-difluoro-4-methoxyphenyl)-1,2,3,4-tetrahydroisoquinoline]",–,Ki [2]: < 1000 nM
"O=C(CN1CCc2nc(N3CCCC3)ccc2C1)N1CCN(C2CCC2)CC1 [Compound 176, 6-[2-(4-cyclobutylpiperazin-1-yl)-2-oxoethyl]-2-pyrrolidin-1-yl-5,6,7,8-tetrahydro-1,6-naphthyridine]",< 1000 nM,–
"O=C(CN1CCc2nc(-n3cccc3)ccc2C1)N1CCN(C2CCC2)CC1 [Compound 227, 6-[2-(4-cyclobutylpiperazin-1-yl)-2-oxoethyl]-2-(1H-pyrrol-1-yl)-5,6,7,8-tetrahydro-1,6-naphthyridine]",< 1000 nM,–
"CN(C)c1ccc(-c2nc3c(s2)CN(CC(=O)N2CCN(C4CCC4)CC2)CC3)cc1 [Compound 331, 4-{5-[2-(4-cyclobutylpiperazin-1-yl)-2-oxoethyl]-4,5,6,7-tetrahydro[1,3]thiazolo [5,4-c]pyridin-2-yl}-N,N-dimethylaniline]",–,Ki [3]: < 1000 nM
"O=C(CN1CCc2cn(-c3cncnc3)nc2C1)N1CCN(C2CCC2)CC1 [Compound 124, 6-[2-(4-cyclobutylpiperazin-1-yl)-2-oxoethyl]-2-pyrimidin-5-yl-4,5,6,7-tetrahydro-2H-pyrazolo[3,4-c]pyridine]",< 1000 nM,–
"CCC1c2ccccc2CCN1CC(=O)N1CCN(C(C)C)CC1 (centres unmarked) [Compound 56, 1-ethyl-2-[2-(4-isopropylpiperazin-1-yl)-2-oxoethyl]-1,2,3,4-tetrahydroisoquinoline]",–,"Ki (Table I, P2 membranes of Sf9 cells, 1 μM histamine as agonist, Ki from IC50 by Cheng-Prusoff): < 1000 nM"
"CS(=O)(=O)c1ccc(-c2ccc3c(c2)CCN(CC(=O)N2CCN(C4CCC4)CC2)C3)cc1 [Compound 389, 2-[2-(4-cyclobutylpiperazin-1-yl)-2-oxoethyl]-6-[4-(methylsulfonyl)phenyl]-1,2,3,4-tetrahydroisoquinoline]",–,Ki [3]: < 1000 nM
"N#CC1CCN(c2ncc3c(n2)CCN(CC(=O)N2CCN(C4CCC4)CC2)C3)CC1 [Compound 690, 1-{6-[2-(4-cyclobutylpiperazin-1-yl)-2-oxoethyl]-5,6,7,8-tetrahydropyrido[4,3-d]pyrimidin-2-yl}piperidine-4-carbonitrile]",–,"Ki (Table II, assay of Example 7): < 1000 nM"
"O=C(CN1CCc2cc(-c3ccc(=O)n(CC(F)(F)F)c3)ccc2C1)N1CCN(C2CCC2)CC1 [Compound 283, 5-{2-[2-(4-cyclobutylpiperazin-1-yl)-2-oxoethyl]-1,2,3,4-tetrahydroisoquinolin-6-yl}-1-(2,2,2-trifluoroethyl)pyridin-2(1H)-one]",–,Ki [3]: < 1000 nM

# Second part, led by results:
Ki [1],SMILES,also measured
< 1000 nM,"CC(=O)c1ccc2c(n1)CCN(CC(=O)N1CCN(C3CCC3)CC1)C2 [Compound 173, 1-{6-[2-(4-cyclobutylpiperazin-1-yl)-2-oxoethyl]-5,6,7,8-tetrahydro-1,6-naphthyridin-2-yl}ethanone]",–
< 1000 nM,"CC(C)(C)c1ncc2c(n1)CCN(CC(=O)N1CCN(C3CCC3)CC1)C2 [Compound 277, 2-tert-butyl-6-[2-(4-cyclobutylpiperazin-1-yl)-2-oxoethyl]-5,6,7,8-tetrahydropyrido[4,3-d]pyrimidine]",–
< 1000 nM,"O=C(CN1CCc2nc(-c3ccccc3)ncc2C1)N1CCN(C2CCC2)CC1 [Compound 247, 6-[2-(4-cyclobutylpiperazin-1-yl)-2-oxoethyl]-2-phenyl-5,6,7,8-tetrahydropyrido[4,3-d]pyrimidine]",–
